The target of this assay is T1, FPR2 (Homo sapiens, UniProt P25090).
T1 construct: expressed in transfected cells; host or cells: CHO-Gα16 cells
T1 sequence (P25090 1-351): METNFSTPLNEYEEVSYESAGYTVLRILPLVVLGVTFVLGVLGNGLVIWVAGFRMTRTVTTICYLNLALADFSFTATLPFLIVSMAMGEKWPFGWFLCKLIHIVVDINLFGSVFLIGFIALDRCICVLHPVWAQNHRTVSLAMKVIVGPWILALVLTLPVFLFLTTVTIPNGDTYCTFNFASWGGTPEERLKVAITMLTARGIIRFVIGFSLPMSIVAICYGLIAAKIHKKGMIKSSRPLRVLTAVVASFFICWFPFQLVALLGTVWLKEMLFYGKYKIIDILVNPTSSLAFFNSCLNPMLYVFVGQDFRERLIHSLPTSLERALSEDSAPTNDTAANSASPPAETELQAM
The assay can be described thus: compound-induced calcium activity on FLIPR Tetra in CHO-Gα16 cells stably expressing FPR2. It counts as cell-based. The note with it: for Emax: efficacy value in brackets after EC50, read-out: FPR2 Gα16-CHO (% eff); for EC50: tested 0.61 to 10,000 nM. As to the method:
CHO-Gα16 cells stably expressing FPR2 were cultured in (F12, 10% FBS, 1% PSA, 400 μg/ml geneticin and 50 μg/ml hygromycin) and HEK-Gqi5 cells stable expressing FPR1 were cultured in (DMEM high glucose, 10% FBS, 1% PSA, 400 μg/ml geneticin and 50 μg/ml hygromycin). In general, the day before the experiment, 18,000 cells/well were plated in a 384-well clear bottom poly-D-lysine coated plate. The following day the screening compound-induced calcium activity was assayed on the FLIPR^Tetra. The drug plates were prepared in 384-well microplates using the EP3 and the MultiPROBE robotic liquid handling systems. Compounds were tested at concentrations ranging from 0.61 to 10,000 nM. Results are expressed as EC50 (nM) and % efficacy values.

SMILES strings stand for the structures.

Data on twelve compounds can be found in US9926264B2, “Phenylcarbamate derivatives as formyl peptide receptor modulators” (Allergan, Inc., priority 2013, dated 2018).

One may read the EC50 as the concentration giving half of the maximal effect. As to `CN(CC(=O)OC(C)(C)C)C(=O)[C@H](Cc1ccccc1)OC(=O)Nc1ccc(Br)cc1` [Compound 36, tert-Butyl {[(2S)-2-({[(4-bromophenyl)amino]carbonyl}oxy)-3-phenylpropanoyl](methyl)amino}acetate], the Emax came to 105% and the EC50 turned out to be 11.7 nM.
The matching figures for `CCCN(CC(=O)O)C(=O)[C@H](CC(C)C)OC(=O)Nc1ccc(C(F)(F)F)cc1` [Compound 37, [{(2S)-4-methyl-2-[({[4-(trifluoromethyl)phenyl]amino}carbonyl)oxy]pentanoyl}(propyl)amino]acetic acid]: 102% and 1.2 nM.
The like results for `CC(C)C[C@H](OC(=O)Nc1ccc(C(F)(F)F)cc1)C(=O)N(CC(=O)O)C(C)C` [Compound 38, (Isopropyl{(2S)-4-methyl-2-[({[4-(trifluoromethyl)phenyl]amino}carbonyl)oxy]pentanoyl}amino)acetic acid] were, in that order, 107% and 0.66 nM.
Regarding `CC(C)C[C@H](OC(=O)Nc1ccc(Br)cc1)C(=O)NCCN` [Compound 39, (1S)-1-{[(2-aminoethyl)amino]carbonyl}-3-methylbutyl (4-bromophenyl) carbamate], the Emax is 89% and the concentration for a half-maximal effect (EC50) was found to be 78 nM.
The matching figures for `O=C(O)CNC(=O)[C@H](Cc1ccccc1)OC(=O)Nc1ccc(Br)cc1` [Compound 40, {[(2S)-2-({[(4-bromophenyl)amino]carbonyl}oxy)-3-phenylpropanoyl]amino}acetic acid]: 95% and 1.3 nM.
With `CN(CC(=O)O)C(=O)[C@H](Cc1ccccc1)OC(=O)Nc1ccc(Br)cc1` [Compound 41, {[(2S)-2-({[(4-Bromophenyl)amino]carbonyl}oxy)-3-phenylpropanoyl](methyl)amino}acetic acid], the Emax turned out to be 98% and the concentration giving a half-maximal response (EC50) amounted to 0.41 nM.
Regarding `CC(C)C[C@H](OC(=O)Nc1ccc(Br)cc1)C(=O)NCCNS(=O)(=O)N(C)C` [Compound 42, (1S)-1-{[(2-{[(Dimethylamino)sulfonyl]amino}ethyl)amino]carbonyl}-3-methylbutyl (4-bromophenyl)carbamate], the Emax amounted to 99% and the EC50 turned out to be 125 nM.
With `CC(C)C[C@H](OC(=O)Nc1ccc(C(F)(F)F)cc1)C(=O)OC(C)(C)C` [Intermediate 2, tert-Butyl (2S)-4-Methyl-2-({[4-(trifluoromethyl)phenyl]carbamoyl}oxy)pentanoate], the Emax was found to be 56% and the EC50 turned out to be 10000 nM.
The matching figures for `CC(C)(C)OC(=O)[C@H](Cc1ccccc1)OC(=O)Nc1ccc(Br)cc1` [Intermediate 2a, tert-Butyl (2S)-2-({[(4-bromophenyl)amino]carbonyl}oxy)-3-phenyl propanoate]: 55% and 2190 nM.
Take `CC(C)C[C@H](OC(=O)Nc1ccc(Br)cc1)C(=O)O` [Intermediate 3, (2S)-2-{[(4-Bromophenyl)carbamoyl]oxy}-4-methylpentanoic acid]: the Emax came to 85% and the EC50 stood at 8.6 nM.
The matching figures for `CC(C)C[C@H](OC(=O)Nc1ccc(C(F)(F)F)cc1)C(=O)O` [Intermediate 4, (2S)-4-Methyl-2-({[4-(Trifluoromethyl)phenyl]carbamoyl}oxy)pentanoic acid]: 88% and 24.7 nM.
In the case of `O=C(Nc1ccc(Br)cc1)O[C@@H](Cc1ccccc1)C(=O)O` [Intermediate 4a, (2S)-2-({[(4-bromophenyl)amino]carbonyl}oxy)-3-phenylpropanoic acid], the Emax stood at 103% and the EC50 came to 1.43 nM.
